The target of assay [1] is T1, DGKζ (Homo sapiens, UniProt Q13574).
T1 construct: purchased Carna 12-110
Kind of assay: DGKζ biochemical assay (ADP-Glo). The settings on record: read-out: DGK ζ IC50. On the procedure:
(§1) Compounds of the present invention were prepared into 10 mM DMSO solution and 10 nL of stock was transferred into 384 plates (Optiplate 384 plate) using Echo550. DMSO was used as high control, and ATP substrate buffer was used as a low control. A 1× enzyme assay buffer was prepared (Hepes, pH 7.0 25 mM, BSA 0.05%, Triton-X100 0.002%, CaCl2) 1 μM, MgCl2 10 mM, DTT 2 mM). […] OAG (1-oleoyl-2-acetyl-sn-glycerol, 25 mg/ml, Avanti 8001000) and PS (10 mg/ml, Avanti 840032P) were mixed at the ratio of 1:2. A 1× substrate solution was prepared with 1× assay buffer by 100-fold dilution. The substrate solution was sonicated on ice for 1 min. The pure ATP was added to the substrate solution (DGKα:400 μM). 5 μL of the enzyme solution were added to the 384 well plate, and the plate was spun for 1 min at 1000 rpm and incubated for 30 mins at RT. 5 μL of 1× substrate solution were added to the 384 well plate, the plate was spun and then incubated for 45 mins at RT. 10 μL ADP-Glo […] was added to stop the assay. After 60 mins at RT, 20 μL ADP-Glo Detection buffer was added as the final step. Plate was read after 45 min incubation at RT.
(§2) Data analysis was performed by calculating the […] using following the formula:
(§3) [formula] • High control (Hc): DMSO/DGKα(DGKζ)/Substrate/ATP/ADP-Glo • Low Control (Lc): ATP/ADP-Glo

The target of assay [2] is DGKα (Homo sapiens, UniProt P23743). Kind of assay: DGKα biochemical assay (ADP-Glo). The conditions noted are these: read-out: DGK α IC50. The method, then: as §1, §2, §3
For orientation: In ADP-Glo the light output rises with the ADP produced.

T1 sequence (Q13574 1-929 isoform Q13574-4): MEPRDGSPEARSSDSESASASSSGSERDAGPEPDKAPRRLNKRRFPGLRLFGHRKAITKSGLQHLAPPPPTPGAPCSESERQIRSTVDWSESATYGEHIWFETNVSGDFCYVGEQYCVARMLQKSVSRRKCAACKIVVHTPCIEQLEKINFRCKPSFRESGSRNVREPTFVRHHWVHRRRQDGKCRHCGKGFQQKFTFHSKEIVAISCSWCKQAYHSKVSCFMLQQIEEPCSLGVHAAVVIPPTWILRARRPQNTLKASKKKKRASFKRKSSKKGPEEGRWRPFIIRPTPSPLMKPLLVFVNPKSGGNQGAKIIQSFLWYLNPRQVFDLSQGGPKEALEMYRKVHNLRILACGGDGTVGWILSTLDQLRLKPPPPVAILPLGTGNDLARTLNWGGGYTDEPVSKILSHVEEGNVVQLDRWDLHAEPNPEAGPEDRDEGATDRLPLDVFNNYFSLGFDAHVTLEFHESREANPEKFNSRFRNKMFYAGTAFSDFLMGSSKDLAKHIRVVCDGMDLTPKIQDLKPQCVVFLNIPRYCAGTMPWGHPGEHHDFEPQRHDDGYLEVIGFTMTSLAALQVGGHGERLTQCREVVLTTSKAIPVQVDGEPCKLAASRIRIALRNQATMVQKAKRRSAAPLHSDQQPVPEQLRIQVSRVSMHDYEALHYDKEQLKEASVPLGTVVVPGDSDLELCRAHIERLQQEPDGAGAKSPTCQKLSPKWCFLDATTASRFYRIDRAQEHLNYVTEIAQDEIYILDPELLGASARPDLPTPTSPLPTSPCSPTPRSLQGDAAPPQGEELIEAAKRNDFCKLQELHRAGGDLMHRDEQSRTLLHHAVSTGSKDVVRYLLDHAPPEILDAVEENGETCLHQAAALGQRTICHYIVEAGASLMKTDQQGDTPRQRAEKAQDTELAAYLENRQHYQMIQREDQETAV
Chain of DGKα (P23743 whole entry): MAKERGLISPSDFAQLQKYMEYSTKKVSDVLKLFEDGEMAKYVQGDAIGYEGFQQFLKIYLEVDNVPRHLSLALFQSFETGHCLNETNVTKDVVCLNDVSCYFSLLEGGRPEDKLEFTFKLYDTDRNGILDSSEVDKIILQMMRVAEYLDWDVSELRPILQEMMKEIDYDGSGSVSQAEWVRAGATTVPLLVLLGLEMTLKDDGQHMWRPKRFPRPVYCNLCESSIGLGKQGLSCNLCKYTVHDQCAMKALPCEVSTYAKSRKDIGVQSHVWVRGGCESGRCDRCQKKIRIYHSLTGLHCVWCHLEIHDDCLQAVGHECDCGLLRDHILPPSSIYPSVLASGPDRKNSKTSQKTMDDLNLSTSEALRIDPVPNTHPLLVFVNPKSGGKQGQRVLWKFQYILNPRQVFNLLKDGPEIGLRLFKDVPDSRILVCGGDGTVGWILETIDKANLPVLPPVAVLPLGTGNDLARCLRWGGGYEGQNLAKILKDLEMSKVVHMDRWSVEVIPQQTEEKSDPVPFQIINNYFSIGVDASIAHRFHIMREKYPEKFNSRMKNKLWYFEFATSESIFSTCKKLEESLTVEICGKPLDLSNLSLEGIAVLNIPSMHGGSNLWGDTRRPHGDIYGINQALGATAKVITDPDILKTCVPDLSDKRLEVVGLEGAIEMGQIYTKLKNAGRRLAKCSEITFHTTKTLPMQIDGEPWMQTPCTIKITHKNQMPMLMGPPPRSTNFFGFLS

In the case of `COc1cc(N(CC2CC2)[C@H]2CC[C@H](N(C)c3c(C#N)c(=O)n(C)c4ccc(Cl)nc34)CC2)ccc1F` [Example 39, trans-6-chloro-4-((4-((cyclopropylmethyl)(4-fluoro-3-methoxyphenyl)amino)cyclohexyl)(methyl)amino)-1-methyl-2-oxo-1,2-dihydro-1,5-naphthyridine-3-carbonitrile], the IC50 – broadly, the concentration at which inhibition is half-maximal – in assay [1] is 100 to 1000 nM; in assay [2] it was 10 to 100 nM.

In the case of `Cn1c(=O)c(C#N)c(N(C)[C@H]2CC[C@H](N(c3ccc(F)cc3)C3CC3)CC2)c2nc(Cl)ccc21` [Example 3F, trans-6-chloro-4-((4-(cyclopropyl(4-fluorophenyl)amino)cyclohexyl) (methyl)amino)-1-methyl-2-oxo-1,2-dihydro-1,5-naphthyridine-3-carbonitrile], the IC50 is 100 to 1000 nM in assay [1] and 10 to 100 nM in assay [2].

Take `Cc1cc(F)ccc1N(C[C@@H]1CCCO1)[C@H]1CC[C@H](N(C)c2c(C#N)c(=O)n(C)c3ccc(C#N)nc23)CC1` [Example 168, trans-8-((-4-((4-fluoro-2-methylphenyl)(((S)-tetrahydrofuran-2-yl)methyl)amino)cyclohexyl) (methyl)amino)-5-methyl-6-oxo-5,6-dihydro-1,5-naphthyridine-2,7-dicarbonitrile]: the IC50 in assay [1] was 100 to 1000 nM; in assay [2], at least 1000 nM.

On to `Cn1c(=O)cc(N(C)[C@H]2CC[C@H](N(CC3CC3)c3ccc4c(c3)OCO4)CC2)c2nc(C#N)ccc21` [Example 88], for which the IC50 in assay [1] and in assay [2] was at least 1000 nM each time.

For the compound `Cn1c(=O)cc(N(C)[C@H]2CC[C@H](N(CC3CC3)c3cccc(F)c3)CC2)c2nc(C#N)ccc21` [Example 25, trans-8-((4-((cyclopropylmethyl)(3-fluorophenyl)amino)cyclohexyl)(methyl)amino)-5-methyl-6-oxo-5,6-dihydro-1,5-naphthyridine-2-carbonitrile], the IC50 in assay [1] and in assay [2] was at least 1000 nM throughout.

In the case of `COc1cccc(N(CC2CC2)[C@H]2CC[C@@H](N(C)c3c(C#N)c(=O)n(C)c4ccc(C#N)nc34)CC2)c1` [Example 28, cis-8-((4-((cyclopropylmethyl)(3-methoxyphenyl)amino)cyclohexyl)(methyl)amino)-5-methyl-6-oxo-5,6-dihydro-1,5-naphthyridine-2,7-dicarbonitrile], the values for the IC50 in assay [1] and in assay [2] were 100 to 1000 nM and 10 to 100 nM, respectively.

As to `Cn1c(=O)c(C#N)c(N(C)[C@H]2CC[C@H](N(CC3CC3)c3cccc(F)c3)CC2)c2nc(C#N)ccc21` [Example 27, trans-8-((4-((cyclopropylmethyl)(3-fluorophenyl)amino)cyclohexyl)(methyl)amino)-5-methyl-6-oxo-5,6-dihydro-1,5-naphthyridine-2,7-dicarbonitrile], the IC50 in assay [1] and in assay [2] was 100 to 1000 nM throughout.

For the compound `CN1CCN(Cc2ccc(N(CC3CC3)C3CCC(N(C)c4c(C#N)c(=O)n(C)c5ccc(C#N)nc45)CC3)cc2)CC1` (single isomer, unassigned) [Example 199, (cis or trans)-8-((4-((cyclopropylmethyl)(4-((4-methylpiperazin-1-yl)methyl)phenyl)amino)cyclohexyl)(methyl)amino)-5-methyl-6-oxo-5,6-dihydro-1,5-naphthyridine-2,7-dicarbonitrile], the IC50 in assay [1] and in assay [2] was at least 1000 nM each time.

Regarding `Cc1cc2c(cc1N(CC1CCC1)[C@H]1CC[C@H](N(C)c3c(C#N)c(=O)n(C)c4ccc(Cl)nc34)CC1)OCO2` [Example 145, trans-6-chloro-4-((4-((cyclobutylmethyl)(6-methylbenzo[d][1,3]dioxol-5-yl)amino)cyclohexyl) (methyl)amino)-1-methyl-2-oxo-1,2-dihydro-1,5-naphthyridine-3-carbonitrile], the IC50 in assay [1] and in assay [2] was at least 1000 nM throughout.

For `Cc1cc(F)ccc1N(CC1COCCN1C)[C@H]1CC[C@H](N(C)c2c(C#N)c(=O)n(C)c3ccc(C#N)nc23)CC1` (stereo partly drawn) [Example 185, trans-8-((-4-((4-fluoro-2-methylphenyl)((4-methylmorpholin-3-yl)methyl)amino)cyclohexyl) (methyl)amino)-5-methyl-6-oxo-5,6-dihydro-1,5-naphthyridine-2,7-dicarbonitrile], the IC50 in assay [1] and in assay [2] was 100 to 1000 nM each time.

Regarding `Cn1c(=O)cc(N(C)[C@H]2CC[C@@H](N(CC3CCC3)c3cccc4c3OCO4)CC2)c2nc(C#N)ccc21` [Example 111, cis-8-((-4-(benzo[d][1,3]dioxol-4-yl(cyclobutylmethyl)amino)cyclohexyl)(methyl)amino)-5-methyl-6-oxo-5,6-dihydro-1,5-naphthyridine-2-carbonitrile], the IC50 in assay [1] and in assay [2] was 100 to 1000 nM each time.

On to `Cn1c(=O)c(C#N)c(N(C)[C@H]2CC[C@@H](N(c3ccc(F)cc3)C3CCC3)CC2)c2nc(Cl)ccc21` [Example 10, cis-6-chloro-4-((4-(cyclobutyl(4-fluorophenyl)amino)cyclohexyl)(methyl)amino)-1-methyl-2-oxo-1,2-dihydro-1,5-naphthyridine-3-carbonitrile], for which the values for the IC50 in assay [1] and in assay [2] were 100 to 1000 nM and below 10 nM, respectively.

As to `Cn1c(=O)c(C#N)c(N(C)[C@H]2CC[C@H](N(CC3CC3)c3ccc(F)c(CN4CCOCC4)c3)CC2)c2nc(C#N)ccc21` [Example 174, trans-8-((-4-((cyclopropylmethyl)(4-fluoro-3-(morpholinomethyl)phenyl)amino)cyclohexyl) (methyl)amino)-5-methyl-6-oxo-5,6-dihydro-1,5-naphthyridine-2,7-dicarbonitrile], the IC50 in assay [1] and in assay [2] was 100 to 1000 nM in each case.

For the compound `Cc1ccc(N(CC2CCC2)[C@H]2CC[C@@H](N(C)c3c(C#N)c(=O)n(C)c4ccc(C#N)nc34)CC2)cc1` [Example 99], the figures for the IC50 in assay [1] and in assay [2] were 10 to 100 nM and below 10 nM, respectively.

`Cc1nc(F)ccc1N(CC1CCC1)[C@H]1CC[C@H](N(C)c2c(C#N)c(=O)n(C)c3ccc(Cl)nc23)CC1` [Example 139, trans-6-chloro-4-((-4-((cyclobutylmethyl)(6-fluoro-2-methylpyridin-3-yl)amino)cyclohexyl)(methyl)amino)-1-methyl-2-oxo-1,2-dihydro-1,5-naphthyridine-3-carbonitrile]: the IC50 in assay [1] and in assay [2] was at least 1000 nM each time.

Consider `Cn1c(=O)c(C#N)c(N(C)[C@H]2CC[C@@H](N(C[C@@H]3CCOC3)c3ccc(F)cc3)CC2)c2nc(C#N)ccc21` [Example 67], for which the IC50 in assay [1] lay within 100 to 1000 nM; in assay [2] it was 10 to 100 nM.

Consider `Cn1c(=O)c(C#N)c(N(C)[C@H]2CC[C@@H](N(CC3CC3)c3ccc(Cl)cc3)CC2)c2nc(Cl)ccc21` [Example 6, cis-6-chloro-4-((4-((4-chlorophenyl) (cyclopropylmethyl)amino)cyclohexyl)(methyl)amino)-1-methyl-2-oxo-1,2-dihydro-1,5-naphthyridine-3-carbonitrile], for which the values for the half-inhibitory concentration (IC50) in assay [1] and in assay [2] were at least 1000 nM and 10 to 100 nM, respectively.

For `Cc1cc(F)ccc1N(CC1CC1)[C@H]1CC[C@@H](N(C)c2c(C#N)c(=O)n(C)c3ccc(C#N)nc23)CC1` [Example 119, cis-8-((4-((cyclopropylmethyl)(4-fluoro-2-methylphenyl)amino)cyclohexyl)(methyl)amino)-5-methyl-6-oxo-5,6-dihydro-1,5-naphthyridine-2,7-dicarbonitrile], the IC50 was 10 to 100 nM in assay [1] and at least 1000 nM in assay [2].

`Cn1c(=O)c(C#N)c(N(C)[C@H]2CC[C@@H](N(c3ccc(F)cc3F)C3CC3)CC2)c2nc(Cl)ccc21` [Example 3CC, cis-6-Chloro-4-[[4-(N-cyclopropyl-2,4-difluoro-anilino)cyclohexyl]-methyl-amino]-1-methyl-2-oxo-1,5-naphthyridine-3-carbonitrile]: the figures for the IC50 in assay [1] and in assay [2] were at least 1000 nM and 100 to 1000 nM, respectively.

On to `Cn1c(=O)c(C#N)c(N(C)[C@H]2CC[C@H](N(CC3CCC3)c3ccc(CCN4CCOCC4)cc3)CC2)c2nc(C#N)ccc21` [Example 172, trans-8-((4-((cyclobutylmethyl)(4-(2-morpholinoethyl)phenyl)amino)cyclohexyl)(methyl)amino)-5-methyl-6-oxo-5,6-dihydro-1,5-naphthyridine-2,7-dicarbonitrile], for which the IC50 in assay [1] and in assay [2] was at least 1000 nM in each case.

As to `Cn1c(=O)c(C#N)c(N(C)[C@H]2CC[C@@H](N(C[C@H]3C[C@H](O)C3)c3ccc(F)cc3)CC2)c2nc(C#N)ccc21` [Example 201, cis-8-((-4-((4-fluorophenyl)((trans-3-hydroxycyclobutyl)methyl)amino)cyclohexyl) (methyl)amino)-5-methyl-6-oxo-5,6-dihydro-1,5-naphthyridine-2,7-dicarbonitrile], the IC50 is at least 1000 nM in assay [1] and below 10 nM in assay [2].

`COc1cc(F)ccc1N(CC1CC1)[C@H]1CC[C@H](N(C)c2c(C#N)c(=O)n(C)c3ccc(Cl)nc23)CC1` [Example 108, trans-6-chloro-4-((-4-((cyclopropylmethyl)(4-fluoro-2-methoxyphenyl)amino)cyclohexyl)(methyl)amino)-1-methyl-2-oxo-1,2-dihydro-1,5-naphthyridine-3-carbonitrile]: the values for the half-maximal inhibitory concentration (IC50) in assay [1] and in assay [2] were 100 to 1000 nM and 10 to 100 nM, respectively.

Values taken from patent US20230271954A1 (Gossamer Bio Services, Inc., priority 2020, published 2023).
